The target in one experiment is Prothrombin (Homo sapiens, UniProt P00734). Kind of experiment: Enzyme Inhibition Assay. On the procedure: Thrombin-catalyzed hydrolysis rates were measured spectrophotometrically using human alpha-thrombin, a chromogenic substrate in aqueous buffer, and a microplate reader. […] The IC50 values were determined by fixing the enzyme and substrate concentrations and varying the inhibitor concentration. Ki values were determined by fixing the enzyme and inhibitor concentrations and varying the substrate concentration. Michaelis-Menton kinetics was applied to the initial reaction slopes using the program K.Cat (Bio Metallics Inc.).

The next experiment concerns the target T1, Serine protease 1 (Bos taurus, UniProt P00760).
T1 sequence (P00760 whole entry): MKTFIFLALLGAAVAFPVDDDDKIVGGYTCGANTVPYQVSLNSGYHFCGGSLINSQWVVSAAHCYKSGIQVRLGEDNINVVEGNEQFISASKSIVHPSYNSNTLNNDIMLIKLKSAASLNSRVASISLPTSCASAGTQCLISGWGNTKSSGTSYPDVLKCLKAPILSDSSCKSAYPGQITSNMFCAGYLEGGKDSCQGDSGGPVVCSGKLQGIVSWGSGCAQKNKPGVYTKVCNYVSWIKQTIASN
Kind of experiment: Enzyme Inhibition Assay.

As to `CCS(=O)(=O)N[C@H](Cc1ccccc1)C(=O)N1CCC[C@H]1C(=O)N[C@@H](C(=O)c1nc2ccccc2s1)C1CCC(N)CC1` (stereo partly drawn) [The relative stereochemistry of the cyclohexyl ring is trans], on Prothrombin, the midpoint of inhibition, the IC50, lay at 460 nM. The Ki (usually the equilibrium dissociation constant of an inhibitor or competing ligand from its target) at Prothrombin amounted to 53 nM; on Serine protease 1, 87 nM.
